Patent US20240116985A1, “STAPLED PEPTIDES AND METHODS THEREOF” (priority 2020, published 2024)
≈ marks a conversion by molar mass, not a printed value. Read-outs that look alike come from different tables or passages of the source.

Columns and labels:
[1] = target: T1, full-length beta-Catenin (Uniprot ID P35222) (Homo sapiens, UniProt P35222); assay: Fluorescence polarization IC50 (beta-catenin / 5FAM-TCF4 10-53 competition); assay type: binding
T1 construct: 10 nM full-length beta-Catenin (Uniprot ID P35222)
T1 sequence (P35222 1-781): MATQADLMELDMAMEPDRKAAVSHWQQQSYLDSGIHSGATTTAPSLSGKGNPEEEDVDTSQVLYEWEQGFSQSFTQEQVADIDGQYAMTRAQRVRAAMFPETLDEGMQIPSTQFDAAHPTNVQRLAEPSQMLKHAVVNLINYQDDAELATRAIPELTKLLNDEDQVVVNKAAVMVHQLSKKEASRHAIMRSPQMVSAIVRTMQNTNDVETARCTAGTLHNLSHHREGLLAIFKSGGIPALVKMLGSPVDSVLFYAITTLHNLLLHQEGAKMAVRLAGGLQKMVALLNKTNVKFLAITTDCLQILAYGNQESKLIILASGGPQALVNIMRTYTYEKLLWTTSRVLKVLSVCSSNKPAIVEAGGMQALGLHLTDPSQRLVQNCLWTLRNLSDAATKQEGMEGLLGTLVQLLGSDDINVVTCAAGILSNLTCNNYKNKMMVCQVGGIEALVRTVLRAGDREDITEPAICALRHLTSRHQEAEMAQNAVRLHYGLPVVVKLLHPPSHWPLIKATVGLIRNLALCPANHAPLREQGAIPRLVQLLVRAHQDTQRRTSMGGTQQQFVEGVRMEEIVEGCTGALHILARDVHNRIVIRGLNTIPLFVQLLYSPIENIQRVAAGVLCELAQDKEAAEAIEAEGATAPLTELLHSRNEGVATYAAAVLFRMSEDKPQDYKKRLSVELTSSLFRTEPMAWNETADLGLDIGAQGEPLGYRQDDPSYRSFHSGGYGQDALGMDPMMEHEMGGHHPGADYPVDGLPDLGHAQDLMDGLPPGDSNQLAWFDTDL

CHI Log D procedure = assay type: physicochemical; conditions: for CHI Log D: pH 7.4; for chromatographic logD: pH 7.4, CHI Log D
Solubility in PBS = assay type: physicochemical
Procedure, shortened: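 PBS sample ultracentrifuged; supernatant run on HPLC vs. 50 μM peptide in DMSO standard. Solubility = (PBS peak area / DMSO peak area) × 50 uM.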

[2] = fluorescence polarization, beta-catenin, read-out: FP EC50
[3] = fluorescence polarization, read-out: beta-Catenin FP IC50

Row | Compound | IC50 [1, 2] [nM] | IC50 ([1]; read-out: beta-Catenin FP IC50) [nM] | CHI Log D (CHI Log D procedure) | Solubility (Solubility in PBS) [µM] | IC50 [1, 3] [nM] | chromatographic logD (CHI Log D procedure) | Solubility (Solubility in PBS; Solubility (uM)) [µM] | IC50 ([1]; Table E2-1, read-out: beta-Catenin FP IC50) [nM] | IC50 ([1]; read-out: FP EC50) [nM]
1 | CC(=O)N1CCC[C@]12CC=CCCCC1(CCCC=CCCCOC(=O)N3CC[C@@](C(=O)N[C@@H](Cc4ccccc4)C(=O)N[C@@H](Cc4csc5ccccc45)C(=O)N[C@@H](CCC(N)=O)C(N)=O)(C3)NC(=O)[C@H](CC(C)C)NC(=O)[C@H](Cc3ccccc3)NC(=O)[C@H](C)NC(=O)[C@H](C)NC(=O)[C@H](CCC(=O)O)NC(=O)[C@H](CC(=O)O)NC1=O)NC(=O)[C@H](CC(C)(C)C)NC(=O)[C@H](CC(=O)O)NC2=O (stereo partly drawn) [I-1073, Ac-PL3-Asp-Npg-B5-Asp-Glu-Ala-Ala-Phe-Leu-PyrS2-Phe-BztA-Gln-NH2] | 409 | 409 | 1.831 | 31 (≈ 59.7 µg/mL) |  |  |  |  | 
2 | CC(=O)N1CCC[C@]12CC=CCCCC1(CCCC=CCCCCCC[C@@](C)(C(=O)N[C@@H](Cc3ccccc3)C(=O)N[C@@H](Cc3csc4ccccc34)C(=O)N[C@@H](Cc3ccco3)C(N)=O)NC(=O)[C@H](CCC(N)=O)NC(=O)[C@H](Cc3ccccc3)NC(=O)[C@H](C)NC(=O)[C@H](C)NC(=O)[C@H](CCC(=O)O)NC(=O)[C@H](CC(=O)O)NC1=O)NC(=O)[C@H](C)NC(=O)[C@H](CC(=O)O)NC2=O (stereo partly drawn) [I-490, Ac-PL3-Asp-Ala-B5-Asp-Glu-Ala-Ala-Phe-Gln-S8-Phe-BztA-2FurA-NH2] |  |  |  | 50 (≈ 92.5 µg/mL) | 88 | 2.21 |  |  | 
3 | CC(=O)N1CCC[C@]12CC=CCCCC1(CCCC=CCCCCCC[C@@](C)(C(=O)N[C@@H](Cc3ccccc3)C(=O)N[C@@H](Cc3csc4ccccc34)C(N)=O)NC(=O)[C@H](CC(N)=O)NC(=O)[C@H](Cc3ccccc3)NC(=O)[C@H](C)NC(=O)[C@H](C)NC(=O)[C@H](CCC(=O)O)NC(=O)[C@H](CC(=O)O)NC1=O)NC(=O)[C@H](C)NC(=O)[C@H](CC(=O)O)NC2=O (stereo partly drawn) [I-432, Ac-PL3-Asp-Ala-B5-Asp-Glu-Ala-Ala-Phe-Asn-S8-Phe-BztA-NH2] |  |  |  |  | 145 | 2.23 | 23 (≈ 39.1 µg/mL) |  | 
4 | CC(=O)N1CCC[C@]12CC=CCCCC1(CCCC=CCCCCCC[C@@](C)(C(=O)N[C@@H](Cc3ccccc3)C(=O)N[C@@H](Cc3csc4ccccc34)C(=O)N[C@@H](CCC(N)=O)C(N)=O)NC(=O)[C@H]([C@@H](C)O)NC(=O)[C@H](Cc3ccccc3)NC(=O)[C@H](C)NC(=O)[C@H](C)NC(=O)[C@H](CCC(=O)O)NC(=O)[C@H](CC(=O)O)NC1=O)NC(=O)[C@H](C)NC(=O)[C@H](CC(=O)O)NC2=O (stereo partly drawn) [I-423, Ac-PL3-Asp-Ala-B5-Asp-Glu-Ala-Ala-Phe-Thr-S8-Phe-BztA-Gln-NH2] |  |  |  |  | 105 | 2.09 | 48 (≈ 87.1 µg/mL) |  | 
5 | CC(=O)N1CCC[C@]12CC=CCCCC1(CCCC=CCCCCCC[C@@](C)(C(=O)N[C@@H](Cc3ccccc3)C(=O)N[C@@H](Cc3csc4ccccc34)C(=O)N[C@@H](CCC(N)=O)C(N)=O)NC(=O)[C@H]([C@@H](C)O)NC(=O)[C@H](Cc3ccccc3)NC(=O)[C@H](C)NC(=O)[C@H](C)NC(=O)[C@H](CC(=O)O)NC(=O)[C@H](CC(=O)O)NC1=O)NC(=O)[C@H](C)NC(=O)[C@H](CC(=O)O)NC2=O (stereo partly drawn) [I-342, Ac-PL3-Asp-Ala-B5-Asp-Asp-Ala-Ala-Phe-Thr-S8-Phe-BztA-Gln-NH2] |  |  |  | 50 (≈ 90 µg/mL) |  | 2.07 |  | 58.5 | 
6 | CC[C@H](C)[C@H](NC(=O)[C@H](CCC(N)=O)NC(=O)[C@H](Cc1csc2ccccc12)NC(=O)[C@H](Cc1ccccc1)NC(=O)[C@]1(C)CCCCCCC=CCCCC2(CCCC=CC[C@]3(CCCN3C(C)=O)C(=O)N[C@@H](CC(=O)O)C(=O)N[C@@H](CC(C)C)C(=O)N2)C(=O)N[C@@H](CC(=O)O)C(=O)N[C@@H](CCC(=O)O)C(=O)N[C@@H](C)C(=O)N[C@@H](C)C(=O)N[C@@H](Cc2ccccc2)C(=O)N[C@@H](CC(N)=O)C(=O)N1)C(N)=O (stereo partly drawn) [I-733, Ac-PL3-Asp-Leu-B5-Asp-Glu-Ala-Ala-Phe-Asn-S8-Phe-BztA-Gln-Ile-NH2] |  |  | 2.154 | 43 (≈ 85.2 µg/mL) | 4260 |  |  |  | 4260
7 | CC(=O)N1CCC[C@]12CC=CCCCC1(CCCC=CCCCCCC[C@@](C)(C(=O)N[C@@H](Cc3ccccc3)C(=O)N[C@@H](Cc3csc4ccccc34)C(=O)N[C@@H](CCC(N)=O)C(N)=O)NC(=O)[C@H](CC(N)=O)NC(=O)[C@H](Cc3ccccc3)NC(=O)[C@H](C)NC(=O)[C@H](C)NC(=O)[C@H](CCC(=O)O)NC(=O)[C@H](CC(=O)O)NC1=O)NC(=O)[C@H](C)NC(=O)[C@H](CNS(C)(=O)=O)NC2=O (stereo partly drawn) [I-534, Ac-PL3-[MeSO2]Dap-Ala-B5-Asp-Glu-Ala-Ala-Phe-Asn-S8-Phe-BztA-Gln-NH2] |  |  |  |  | 5000 | 2.43 | 31 (≈ 58.2 µg/mL) |  | 
8 | CC(=O)N1CCC[C@]12CC=CCCCC1(CCCC=CCCCCCC[C@@](C)(C(=O)N[C@@H](Cc3ccccc3)C(=O)N[C@@H](Cc3csc4ccccc34)C(=O)N[C@@H](CCC(N)=O)C(N)=O)NC(=O)[C@H](CCC(N)=O)NC(=O)[C@H](Cc3ccccc3)NC(=O)[C@H](C)NC(=O)[C@H](C)NC(=O)[C@H](CCC(=O)O)NC(=O)[C@H](Cc3nn[nH]n3)NC1=O)NC(=O)[C@H](C)NC(=O)[C@H](CC(=O)O)NC2=O (stereo partly drawn) [I-414, Ac-PL3-Asp-Ala-B5-tetz-Glu-Ala-Ala-Phe-Gln-S8-Phe-BztA-Gln-NH2] |  |  | 2.096 | 19 (≈ 35.4 µg/mL) | 3420 |  |  |  | 3420
9 | CC(=O)N1CCC[C@]12CC=CCCCC1(CCCC=CCCCOC(=O)N3CC[C@@](C(=O)N[C@@H](Cc4ccsc4)C(=O)N[C@@H](Cc4csc5ccccc45)C(=O)N[C@@H](CO)C(N)=O)(C3)NC(=O)[C@H]([C@@H](C)O)NC(=O)[C@H](Cc3ccccc3)NC(=O)[C@H](C)NC(=O)[C@H](C)NC(=O)[C@H](CN(CC(=O)O)CC(F)(F)F)NC(=O)[C@H](CC(=O)O)NC1=O)NC(=O)[C@H](CC(C)(C)C)NC(=O)[C@H](CC(=O)O)NC2=O (stereo partly drawn) [I-957, Ac-PL3-Asp-Npg-B5-Asp-TfeGA-Ala-Ala-Phe-Thr-PyrS2-3Thi-BztA-Ser-NH2] | 1430 | 1430 | −0.043 | 46 (≈ 90.9 µg/mL) |  |  |  |  | 
10 | CC[C@H](C)[C@@H]1NC(=O)[C@H](CC(=O)O)NC(=O)[C@]2(CC=CCCCC3(CCCC=CCCCCCC[C@@](C)(C(=O)N[C@@H](Cc4ccccc4)C(=O)N[C@@H](Cc4csc5ccccc45)C(=O)N[C@@H](CCC(N)=O)C(N)=O)NC(=O)[C@H](CCC(N)=O)NC(=O)[C@H](Cc4ccc(-c5ccccc5)cc4)NC(=O)[C@H](C)NC(=O)[C@H](C)NC(=O)[C@H](CCC(=O)O)NC(=O)[C@H](CC(=O)O)NC3=O)NC1=O)CCCN2C(C)=O (stereo partly drawn) [I-723, Ac-PL3-Asp-Ile-B5-Asp-Glu-Ala-Ala-Bip-Gln-S8-Phe-BztA-Gln-NH2] |  |  |  |  | 3830 | 2.58 | 29 (≈ 56.8 µg/mL) |  | 
11 | CC(=O)N1CCC[C@]12CC=CCCCC1(CCCC=CCCCCCC[C@@](C)(C(=O)N[C@@H](Cc3ccsc3)C(=O)N[C@@H](Cc3csc4ccccc34)C(=O)N[C@@H](Cc3c[nH]cn3)C(N)=O)NC(=O)[C@H](CC(N)=O)NC(=O)[C@H](Cc3ccccc3)NC(=O)[C@H](C)NC(=O)[C@H](C)NC(=O)[C@H](CN(CC(=O)O)CC(F)(F)F)NC(=O)[C@H](CC(=O)O)NC1=O)NC(=O)[C@H](CC(C)(C)C)NC(=O)[C@H](CC(=O)O)NC2=O (stereo partly drawn) [I-705, Ac-PL3-Asp-Npg-B5-Asp-TfeGA-Ala-Ala-Phe-Asn-S8-3Thi-BztA-His-NH2] |  |  |  |  | 58 | 2.89 | 25 (≈ 49.9 µg/mL) |  | 
12 | CC[C@H](C)[C@@H]1NC(=O)[C@H](CC(=O)O)NC(=O)[C@]2(CC=CCCCC3(CCCC=CCCCCCC[C@@](C)(C(=O)N[C@@H](Cc4ccccc4)C(=O)N[C@@H](Cc4csc5ccccc45)C(=O)N[C@@H](CCC(N)=O)C(N)=O)NC(=O)[C@H](CCC(N)=O)NC(=O)[C@H](Cc4ccccc4)NC(=O)[C@H](C)NC(=O)[C@H](C)NC(=O)[C@H](CCCNC(N)=O)NC(=O)[C@H](CC(=O)O)NC3=O)NC1=O)CCCN2C(C)=O (stereo partly drawn) [I-605, Ac-PL3-Asp-Ile-B5-Asp-Cit-Ala-Ala-Phe-Gln-S8-Phe-BztA-Gln-NH2] |  |  | 2.617 | 10 (≈ 19.1 µg/mL) | 632 |  |  |  | 632
13 | CC(=O)N1CCC[C@]12CC=CCCCC1(CCCC=CCCCCCC[C@@](C)(C(=O)N[C@@H](Cc3ccccc3)C(=O)N[C@@H](Cc3csc4ccccc34)C(=O)N[C@@H](Cc3c[nH]cn3)C(N)=O)NC(=O)[C@H](CC(N)=O)NC(=O)[C@H](Cc3ccccc3)NC(=O)[C@H](C)NC(=O)[C@H](C)NC(=O)[C@H](CCC(=O)O)NC(=O)[C@H](CC(=O)O)NC1=O)NC(=O)[C@H](C)NC(=O)[C@H](CC(=O)O)NC2=O (stereo partly drawn) [I-422, Ac-PL3-Asp-Ala-B5-Asp-Glu-Ala-Ala-Phe-Asn-S8-Phe-BztA-His-NH2] |  |  | 2.136 | 24 (≈ 44.1 µg/mL) | 27 |  |  |  | 27
